Source: patent publication US20210309686A1, “QUATERNARY AMMONIUM SALTS OF NICOTINIC ACID AND NICOTINAMIDE MONONUCLOETIDES AND RIBOSIDES AS ANTI-AGING AGENTS” (Jumpstart Fertility Pty Ltd, priority 2018, published 2021)

Tested on: COV434 cells
Experiment: NAD Cell Assays (NAD cycling method)
Format: cell-based
Conditions: COV434 cells treated at 200 uM for 4 hr; NAD normalized to protein; salt compared mole per mole with its parent counterpart
Method: NAD levels were assayed based on the NAD cycling method of Zhu and Rand, PLoS One (2012), herein incorporated by reference. COV434 cells were maintained in 6 well plates and treated with the indicated compounds at a concentration of 200 uM for 4 hr. Media was removed, plates were washed in cold PBS and cells were scraped down in NAD extraction buffer containing 10 mM nicotinamide, 50 mM Tris HCl, 0.1% Triton X-100. Cells were homogenized by sonication for 5 seconds, and samples were centrifuged at 7,000 g for 5 min at 4 degrees. Aliquots were taken for later protein assay, and samples were then passed through 10 kDa amicon filters at 14,000 g, 30 min at 4 degrees to remove proteins from the sample. Each sample was measured in technical triplicate, with 25 μL sample added to 100 μL ADH cycling mix (0.2 mg/ml alcohol dehydrogenase enzyme, 2% ethanol, 100 mM Tris pH 8.5). Samples were allowed to cycle for 10 min at room temperature, followed by 50 μL addition of an MTT/PMS solution (0.1 mM phenazine methosulfate, 0.8 mM 3-(4,5-Dimethylthiazol-2-yl)-2,5-diphenyltetrazolium bromide), 100 mM Tris-HCl pH 8.5). Plates were then incubated for 15 min and absorbance was measured at 570 nm. NAD concentrations were extrapolated from a standard curve, and normalized to protein concentrations determined by BCA protein assay.
The fold increase is obtained through a direct comparison on a mole per mole between the compared salt and its parent counterpart.

| SMILES | Fold Increase of NAD Adjusted by Molecular Weight |
| --- | --- |
| O=C([O-])c1ccc[n+]([C@@H]2O[C@H](COP(=O)(O)O)[C@@H](O)[C@H]2O)c1 [I-002, (R)-3-Carboxy-2-hydroxy-N,N,N-trimethylpropan-1-aminium 1-((2R,3R,4S,5R)-5-(((hydrogenphosphonato)oxy)methyl)-3,4-dihydroxytetrahydrofuran-2-yl)pyridin-1-ium-3-carboxylate] | 1.47 |
| O=C([O-])c1ccc[n+]([C@@H]2O[C@H](COP(=O)(O)O)[C@@H](O)[C@H]2O)c1 [I-003, 1-Carboxy-N,N,N-trimethylmethanaminium 1-((2R,3R,4S,5R)-5-(((hydrogenphosphonato)oxy)methyl)-3,4-dihydroxytetrahydrofuran-2-yl)pyridin-1-ium-3-carboxylate] | 1.51 |
| NC(=O)c1ccc[n+]([C@@H]2O[C@H](COP(=O)([O-])O)[C@@H](O)[C@H]2O)c1 [I-005, 1-Carboxy-N,N,N-trimethylmethanaminium ((2R,3S,4R,5R)-5-(3-carbamoylpyridin-1-ium-1-yl)-3,4-dihydroxytetrahydrofuran-2-yl)methyl phosphate] | 1.35 |
| O=C([O-])c1ccc[n+]([C@@H]2O[C@H](COP(=O)(O)O)[C@@H](O)[C@H]2O)c1 [I-006, (R)-3-Carboxy-2-hydroxy-N,N,N-trimethylpropan-1-aminium 1-((2R,3R,4S,5R)-3,4-dihydroxy-5-((phosphonatooxy)methyl)tetrahydrofuran-2-yl)pyridin-1-ium-3-carboxylate] | 1.64 |
| O=C([O-])c1ccc[n+]([C@@H]2O[C@H](COP(=O)(O)O)[C@@H](O)[C@H]2O)c1 [I-007, 1-Carboxy-N,N,N-trimethylmethanaminium 1-((2R,3R,4S,5R)-3,4-dihydroxy-5-((phosphonatooxy)methyl)tetrahydrofuran-2-yl)pyridin-1-ium-3-carboxylate] | 1.92 |
